Data taken from US9309242B2, “Substituted pyrido[2,3-b]pyrazines as FGFR kinase inhibitors” (priority 2011, dated 2016).

Experiments:
FGFR4 (h) = FGFR4 (h) (Homo sapiens, UniProt P22455); test: FGFR4 (enzymatic assay), TR-FRET; assay type: biochemical; details: FGFR 4 pIC50, enzymatic assay
FGFR2 (h) = FGFR2 (h) (Homo sapiens, UniProt P21802); test: FGFR2 (enzymatic assay), TR-FRET; assay type: biochemical; details: enzymatic assay; read-out: FGFR 2 pIC50 (converted)
Procedure, shortened: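 Kinase reaction in 50 mM HEPES pH 7.5 with 6 mM MnCl2, 1 mM DTT, 0.1 mM Na3VO4 and 0.01% Triton-X-100 contained FGFR2 (h) at 150 ng/ml. Biotinylated Flt3 peptide (500 nM) served as substrate with 0.4 μM ATP, compound added in 1% DMSO final.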

KDR (h) = KDR (h) (Homo sapiens, UniProt P35968); test: KDR (VEGFR2) (enzymatic assay), TR-FRET; assay type: biochemical; details: read-out: VEGFR 2 (KDR) pIC50 (converted)
Procedure, shortened: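 Enzyme at 150 ng/ml was incubated 120 min at room temperature with 500 nM Btn-Flt3 peptide and 3 μM ATP in 50 mM HEPES pH 7.5, 6 mM MnCl2, 1 mM DTT, 0.1 mM Na3VO4, 0.01% Triton-X-100, 1% DMSO final. EDTA stop with Eu-anti-P-Tyr/SA-XL-665, 60 min; TR-FRET read in RFU.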

[1] = molecular target: T1, Ba/F3-FGFR1-transfected cells (Homo sapiens, UniProt P11362); test: Ba/F3-FGFR1 (minus IL3) cellular proliferation assay, Alamar Blue; assay type: cell-based
T1 construct: BAF3-FGFR1 (MIN IL3) pIC50; other: minus IL3
Procedure, shortened: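 Ba/F3-FGFR1 cells (20000 per well) were exposed to compound for 24 h at 37 °C in RPMI-1640 with 10% FBS. Alamar Blue (resazurin) was then added for 4 h, and fluorescence was read at ex 540/em 590 nm.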

FGFR3 (h) = FGFR3 (h) (Homo sapiens, UniProt P22607); test: FGFR3 (enzymatic assay), TR-FRET; assay type: biochemical; details: read-out: FGFR 3 pIC50 (converted)
Source text: Time-Resolved Fluorescence Resonance Energy Transfer (TR-FRET) signal (ex340 nm.

[2] = test system: Ba/F3-KDR-transfected cells; test: Ba/F3-KDR (plus IL3) cellular proliferation assay, counterscreen with 10 ng/ml murine IL3; assay type: cell-based; details: plus IL3 (10 ng/ml murine IL3, counterscreen); read-out: BAF3-KDR (PLUS IL3) pIC50 (converted)
Procedure, shortened: (§1)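 Ba/F3-KDR cells (20000 per well) in phenol red-free RPMI-1640 with 10% FBS were exposed to compound for 24 hours at 37° C, 5% CO2. Alamar Blue (resazurin) was then added for 4 hours, and fluorescence was read at ex. 540 nm/em. 590 nm.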

[3] = molecular target: T2, Ba/F3-FGFR3-transfected cells (Homo sapiens, UniProt P22607); test: Ba/F3-FGFR3 (minus IL3) cellular proliferation assay, Alamar Blue; assay type: cell-based
T2 construct: BAF3-FGFR3 (MIN IL3) pIC50; other: minus IL3
Procedure, shortened: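 Ba/F3 cells transfected with FGFR3, 20000/well in phenol red-free RPMI-1640 with 10% FBS, exposed to compound for 24 h at 37 °C, 5% CO2. Alamar Blue (resazurin) added for 4 h more; fluorescence read at ex 540/em 590 nm. Counterscreen run the same way with 10 ng/ml murine IL3.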

[4] = molecular target: T3, Ba/F3-KDR-transfected cells (Homo sapiens, UniProt P35968); test: Ba/F3-KDR (minus IL3) cellular proliferation assay, Alamar Blue; assay type: cell-based
T3 construct: BAF3-KDR (MIN IL3) pIC50; other: minus IL3
Procedure, shortened: as §1

[5] = test system: Ba/F3-FGFR1-transfected cells; test: Ba/F3-FGFR1 (plus IL3) cellular proliferation assay, counterscreen with 10 ng/ml murine IL3; assay type: cell-based; details: plus IL3 (10 ng/ml murine IL3, counterscreen); read-out: BAF3-FGFR1 (PLUS IL3) pIC50 (converted)
Procedure, shortened: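 Ba/F3-FGFR1 cells (20000/well) in RPMI-1640 with 10% FBS exposed to compound for 24 h at 37° C., 5% CO2, then Alamar Blue (resazurin) added for 4 h; fluorescence read at ex 540/em 590 nm. Counterscreen run identically with 10 ng/ml murine IL3.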

T1 sequence (P11362 whole entry, change not shown): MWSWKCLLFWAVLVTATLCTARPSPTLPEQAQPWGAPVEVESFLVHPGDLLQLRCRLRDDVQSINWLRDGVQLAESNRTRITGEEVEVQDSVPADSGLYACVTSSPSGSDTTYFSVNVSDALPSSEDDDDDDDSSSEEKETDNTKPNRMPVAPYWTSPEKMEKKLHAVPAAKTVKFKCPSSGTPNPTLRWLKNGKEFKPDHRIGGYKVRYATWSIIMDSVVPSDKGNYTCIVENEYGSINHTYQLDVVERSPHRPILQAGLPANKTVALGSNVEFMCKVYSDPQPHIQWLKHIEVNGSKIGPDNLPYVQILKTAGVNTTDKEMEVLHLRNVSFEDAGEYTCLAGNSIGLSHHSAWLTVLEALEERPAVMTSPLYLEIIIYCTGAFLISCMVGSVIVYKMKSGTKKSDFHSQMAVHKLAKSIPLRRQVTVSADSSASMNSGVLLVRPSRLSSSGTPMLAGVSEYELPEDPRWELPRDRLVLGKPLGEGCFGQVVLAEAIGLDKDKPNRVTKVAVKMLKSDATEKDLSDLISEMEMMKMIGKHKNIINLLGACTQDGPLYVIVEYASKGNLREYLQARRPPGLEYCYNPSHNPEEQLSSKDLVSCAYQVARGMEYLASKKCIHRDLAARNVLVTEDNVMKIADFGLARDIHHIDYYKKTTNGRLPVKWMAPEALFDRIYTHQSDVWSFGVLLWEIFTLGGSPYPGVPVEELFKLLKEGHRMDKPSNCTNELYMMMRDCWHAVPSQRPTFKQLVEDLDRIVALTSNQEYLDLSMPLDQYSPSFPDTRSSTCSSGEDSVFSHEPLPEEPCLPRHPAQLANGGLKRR
Sequence of FGFR4 (h) (P22455 22-802): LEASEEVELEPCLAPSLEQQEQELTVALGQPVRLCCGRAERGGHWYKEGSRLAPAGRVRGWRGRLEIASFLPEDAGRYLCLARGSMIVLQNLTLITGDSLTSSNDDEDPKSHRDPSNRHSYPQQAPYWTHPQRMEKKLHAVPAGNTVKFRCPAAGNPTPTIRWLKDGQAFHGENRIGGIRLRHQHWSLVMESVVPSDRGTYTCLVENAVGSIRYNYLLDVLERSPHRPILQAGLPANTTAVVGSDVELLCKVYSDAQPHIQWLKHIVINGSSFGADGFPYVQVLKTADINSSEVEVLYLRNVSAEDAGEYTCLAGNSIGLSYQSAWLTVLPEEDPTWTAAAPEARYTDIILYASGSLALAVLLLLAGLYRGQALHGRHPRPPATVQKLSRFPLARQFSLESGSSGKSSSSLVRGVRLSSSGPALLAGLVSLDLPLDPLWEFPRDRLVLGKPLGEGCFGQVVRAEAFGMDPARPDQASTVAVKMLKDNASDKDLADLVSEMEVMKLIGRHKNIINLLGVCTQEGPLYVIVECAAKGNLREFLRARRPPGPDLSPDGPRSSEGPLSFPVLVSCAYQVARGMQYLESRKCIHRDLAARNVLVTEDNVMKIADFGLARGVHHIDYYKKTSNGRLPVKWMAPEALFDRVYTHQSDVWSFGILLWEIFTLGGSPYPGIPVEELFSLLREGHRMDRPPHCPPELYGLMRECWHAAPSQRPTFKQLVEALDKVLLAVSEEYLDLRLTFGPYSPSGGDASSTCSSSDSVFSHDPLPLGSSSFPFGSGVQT
T2 sequence (P22607 whole entry, change not shown): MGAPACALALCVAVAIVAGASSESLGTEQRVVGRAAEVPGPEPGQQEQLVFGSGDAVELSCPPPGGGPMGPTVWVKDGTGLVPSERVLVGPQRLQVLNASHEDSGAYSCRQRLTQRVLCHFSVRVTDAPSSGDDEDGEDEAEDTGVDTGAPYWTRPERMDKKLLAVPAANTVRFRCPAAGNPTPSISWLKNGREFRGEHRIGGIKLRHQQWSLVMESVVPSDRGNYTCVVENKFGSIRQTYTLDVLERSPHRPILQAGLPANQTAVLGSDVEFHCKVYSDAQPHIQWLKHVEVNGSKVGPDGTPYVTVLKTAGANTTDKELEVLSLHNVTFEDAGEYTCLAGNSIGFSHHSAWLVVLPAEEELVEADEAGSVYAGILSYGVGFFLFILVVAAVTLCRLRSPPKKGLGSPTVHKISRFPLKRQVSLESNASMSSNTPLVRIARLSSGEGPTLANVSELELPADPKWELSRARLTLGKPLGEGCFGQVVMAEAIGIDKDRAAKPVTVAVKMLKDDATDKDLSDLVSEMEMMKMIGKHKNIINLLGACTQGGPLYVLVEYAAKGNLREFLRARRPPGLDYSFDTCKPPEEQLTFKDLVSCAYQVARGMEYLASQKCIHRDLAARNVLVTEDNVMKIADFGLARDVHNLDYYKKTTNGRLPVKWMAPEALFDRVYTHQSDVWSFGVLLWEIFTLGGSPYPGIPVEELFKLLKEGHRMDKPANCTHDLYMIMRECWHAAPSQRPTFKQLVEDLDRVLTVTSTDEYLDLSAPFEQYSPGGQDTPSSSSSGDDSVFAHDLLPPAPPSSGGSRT
Sequence of FGFR3 (h) (P22607 23-806): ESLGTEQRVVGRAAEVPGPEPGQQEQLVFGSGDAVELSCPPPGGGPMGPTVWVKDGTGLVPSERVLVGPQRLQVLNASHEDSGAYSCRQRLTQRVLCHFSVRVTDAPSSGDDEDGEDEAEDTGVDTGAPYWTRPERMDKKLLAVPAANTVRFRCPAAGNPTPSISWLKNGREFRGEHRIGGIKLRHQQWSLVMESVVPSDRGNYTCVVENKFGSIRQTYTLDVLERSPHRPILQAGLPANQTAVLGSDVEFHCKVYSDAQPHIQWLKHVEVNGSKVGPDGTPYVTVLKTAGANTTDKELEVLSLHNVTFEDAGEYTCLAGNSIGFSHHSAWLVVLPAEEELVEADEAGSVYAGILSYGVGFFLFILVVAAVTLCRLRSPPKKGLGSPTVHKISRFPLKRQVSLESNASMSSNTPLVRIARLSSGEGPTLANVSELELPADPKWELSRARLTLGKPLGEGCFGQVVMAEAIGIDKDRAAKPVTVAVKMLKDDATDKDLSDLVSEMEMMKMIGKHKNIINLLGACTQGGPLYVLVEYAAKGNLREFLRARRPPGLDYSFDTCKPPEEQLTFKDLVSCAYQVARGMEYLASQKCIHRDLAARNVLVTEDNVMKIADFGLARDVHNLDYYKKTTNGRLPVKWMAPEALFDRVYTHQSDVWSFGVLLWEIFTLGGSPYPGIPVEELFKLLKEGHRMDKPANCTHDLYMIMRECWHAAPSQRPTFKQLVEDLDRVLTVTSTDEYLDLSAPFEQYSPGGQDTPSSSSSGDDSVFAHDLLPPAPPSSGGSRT
T3 sequence (P35968 whole entry, change not shown): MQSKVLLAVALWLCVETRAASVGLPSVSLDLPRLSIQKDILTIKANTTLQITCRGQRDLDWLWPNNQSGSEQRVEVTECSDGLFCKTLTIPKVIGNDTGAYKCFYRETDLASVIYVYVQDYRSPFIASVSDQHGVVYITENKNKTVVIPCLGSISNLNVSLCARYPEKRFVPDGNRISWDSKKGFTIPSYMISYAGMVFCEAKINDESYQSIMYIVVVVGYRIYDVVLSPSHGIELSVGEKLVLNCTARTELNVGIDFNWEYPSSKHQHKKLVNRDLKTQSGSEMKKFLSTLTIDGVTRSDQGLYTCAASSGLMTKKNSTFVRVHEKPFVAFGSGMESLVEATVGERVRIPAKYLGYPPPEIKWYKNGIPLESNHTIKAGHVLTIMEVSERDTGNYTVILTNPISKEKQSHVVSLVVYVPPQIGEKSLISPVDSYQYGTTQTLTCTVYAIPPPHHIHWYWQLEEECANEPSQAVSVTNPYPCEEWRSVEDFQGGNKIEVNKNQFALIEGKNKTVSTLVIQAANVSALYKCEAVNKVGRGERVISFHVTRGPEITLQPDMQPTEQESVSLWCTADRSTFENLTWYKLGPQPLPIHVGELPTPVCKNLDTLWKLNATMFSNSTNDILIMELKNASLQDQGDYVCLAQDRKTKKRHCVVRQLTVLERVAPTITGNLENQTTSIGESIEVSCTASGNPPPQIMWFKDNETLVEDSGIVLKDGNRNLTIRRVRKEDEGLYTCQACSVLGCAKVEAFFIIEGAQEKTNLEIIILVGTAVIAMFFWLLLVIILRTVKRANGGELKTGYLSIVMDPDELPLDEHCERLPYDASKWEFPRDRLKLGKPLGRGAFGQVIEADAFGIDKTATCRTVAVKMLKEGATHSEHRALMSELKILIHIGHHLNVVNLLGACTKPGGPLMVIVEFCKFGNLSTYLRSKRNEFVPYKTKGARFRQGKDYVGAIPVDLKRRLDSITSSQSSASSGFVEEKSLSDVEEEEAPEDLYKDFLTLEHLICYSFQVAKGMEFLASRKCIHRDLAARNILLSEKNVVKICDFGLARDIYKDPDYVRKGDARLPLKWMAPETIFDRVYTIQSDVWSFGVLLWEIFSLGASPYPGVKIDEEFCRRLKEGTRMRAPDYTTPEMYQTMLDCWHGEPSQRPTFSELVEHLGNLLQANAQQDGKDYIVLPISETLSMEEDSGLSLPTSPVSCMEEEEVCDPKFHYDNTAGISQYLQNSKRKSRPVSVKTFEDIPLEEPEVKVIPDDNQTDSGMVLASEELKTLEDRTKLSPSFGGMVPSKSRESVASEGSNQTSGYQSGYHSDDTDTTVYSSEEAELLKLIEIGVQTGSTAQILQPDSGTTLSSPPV

SMILES | IC50 (FGFR4 (h)) | IC50 (FGFR2 (h)) | IC50 (KDR (h)) | BAF3-FGFR1 (MIN IL3) pIC50 [1] | IC50 (FGFR3 (h)) | IC50 [2] | BAF3-FGFR3 (MIN IL3) pIC50 [3] | BAF3-KDR (MIN IL3) pIC50 [4] | IC50 [5]
COc1cc(OC)c(F)c(N(Cc2ncc[nH]2)c2ccc3ncc(-c4ccncc4)nc3n2)c1 [Compound 211] | 2.29 nM | ~2.34 nM | 36.3 nM | 8.08 | 1.51 nM | > 10000 nM | ~8.11 | 5.82 | > 10000 nM
COc1cc(OC)cc(N(CCO)c2ccc3ncc(-c4ccncc4)nc3n2)c1 [Compound 213] | 25.1 nM | 5.62 nM | 245 nM | 6.57 | 3.8 nM | > 10000 nM | ~6.7 | 5.01 | > 10000 nM
COC(=O)CN(c1ccc2ncc(-c3cnn(C)c3)nc2n1)c1cc(OC)cc(OC)c1F [Compound 214] | 11.2 nM | 2.57 nM | 145 nM | 7.08 | 2.4 nM | > 10000 nM | ~7.18 | 5.31 | > 10000 nM
COc1cc(OC)c(F)c(N(Cc2ncc[nH]2)c2ccc3ncc(N4CCOCC4)nc3n2)c1F [Compound 215] | 2.14 nM | 2.09 nM | 52.5 nM | 8.25 | ~1.26 nM | > 10000 nM | 8.18 | 5.91 | > 10000 nM
COc1cc(OC)cc(N(Cc2nnco2)c2ccc3ncc(-c4cnn(C)c4)nc3n2)c1 [Compound 217] | 23.4 nM | 5.89 nM | 162 nM | 6.59 | 3.89 nM | > 10000 nM | ~6.68 | 5.18 | > 10000 nM
COc1cc(OC)c(F)c(N(Cc2nc(OC)cc(OC)n2)c2ccc3ncc(-c4cnn(C)c4)nc3n2)c1 [Compound 220] | 29.5 nM | 6.92 nM | 50.1 nM | 6.32 | 9.33 nM | > 10000 nM | 5.91 | 5.22 | > 10000 nM
COc1cc(OC)c(F)c(N(CCNC2COC2)c2ccc3ncc(-c4cnn(C)c4)nc3n2)c1 [Compound 221] | 6.61 nM | 3.09 nM | ~29.5 nM | 7.53 | 0.891 nM | > 10000 nM | ~7.67 | 6.11 | > 10000 nM
COc1cc(OC)c(F)c(N(CCN(C2COC2)C2COC2)c2ccc3ncc(-c4cnn(C)c4)nc3n2)c1 [Compound 222] | 15.5 nM | 5.25 nM | 40.7 nM | 7.12 | 3.89 nM | > 10000 nM | ~7.19 | 5.68 | > 10000 nM
CCn1cc(-c2cnc3ccc(N(Cc4ncc[nH]4)c4cc(OC)cc(OC)c4F)nc3n2)cn1 [Compound 223] | 1.29 nM | 1.58 nM | 7.08 nM | 8.85 | 1.23 nM | > 10000 nM | ~8.58 | 6.81 | > 10000 nM
COc1cc(OC)c(F)c(N(CC(=O)c2cnn(C)c2)c2ccc3ncc(-c4cnn(C)c4)nc3n2)c1 [Compound 225] | 36.3 nM | ~7.08 nM | 200 nM | 6.41 | 7.76 nM | > 10000 nM | 6.29 | 5.17 | > 10000 nM
COc1cc(OC)cc(N(Cc2ncc[nH]2)c2ccc3ncc(-c4cnn(C5CCNCC5)c4)nc3n2)c1 [Compound 227] | 1.82 nM | 1.45 nM | 12 nM | 7.73 | 0.891 nM | > 10000 nM | 7.63 | 5.79 | > 10000 nM
COc1cc(OC)cc(N(Cc2n[nH]c(=O)o2)c2ccc3ncc(-c4cnn(C)c4)nc3n2)c1 [Compound 229] | 22.4 nM | 5.62 nM | 182 nM | 5.97 | 4.07 nM | > 10000 nM | 6.05 | <5 | > 10000 nM
COc1cc(OC)c(F)c(N(CC(=O)NCCO)c2ccc3ncc(-c4cnn(C)c4)nc3n2)c1 [Compound 230] | 42.7 nM | 7.41 nM | 363 nM | 6.09 | 7.94 nM | > 10000 nM | 6.18 | 5.04 | > 10000 nM
COc1cc(OC)c(F)c(N(CC(=O)O)c2ccc3ncc(-c4cnn(C)c4)nc3n2)c1 [Compound 231] | 17.8 nM | 6.31 nM | 200 nM | 5.27 | 3.98 nM | > 10000 nM | 5.75 | <5 | > 10000 nM
COc1cc(OC)c(F)c(N(Cc2nc(CO)c[nH]2)c2ccc3ncc(-c4cnn(C)c4)nc3n2)c1 [Compound 232] | 1.86 nM | ~2.75 nM | 22.4 nM | 7.45 | 1.29 nM | > 10000 nM | 7.81 | 5.83 | > 10000 nM
